The source of these data is US20130345145A1, “ATIP3 AND BIOLOGICALLY ACTIVE FRAGMENTS THEREOF FOR USE IN THE TREATMENT OF CANCER” (INSTITUT NATIONAL DE LA SANTE ET DE LA RECHERCHE MEDICALE …, priority 2011, published 2013).

For one assay, the system named is microtubule cytoskeleton. In words: Immunofluorescence intracellular localization in RPE1 cells. The format is cell-based, Human. Particulars: RPE1 cells transfected 24 hrs, data not shown. As to the method: Immunofluorescence study was performed as example 2. Briefly, Human retinal pigment epithelial (RPE1) cells were transfected for 24 hrs with GFP-D2N, GFP-D2C or GFP-D2CC constructs prior to fixation in ice-cold methanol and incubation with anti-GFP antibodies as described (page 21, lines 1-9).

The subject of another assay is MCF7 breast cancer cells. In words: Xcelligence cell proliferation of stable MCF7 clones. Format: cell-based. Particulars: clone D2CC3, MCF7, FIG. 13. The procedure:
Stable clones of MCF7 breast cancer cells expressing moderate levels of GFP-D2N (clones D2N6 and D2N8), GFP-D2C (clone D2C6 and a pool of positive cells) and GFP-D2CC (clone Cl3) have been selected in G418 (1 mg/ml)-containing medium for 4 weeks. Detectable expression of a single polypeptide of expected molecular weight in each case was confirmed by western blotting using anti-GFP antibodies.
Cell proliferation was measured using the Xcelligence technology (Roche). Briefly, cell clones were seeded at 15000 cells/well on 96 wells containing gold electrodes and cellular impedance was monitored in real-time for 40 hours.

Where no end group is shown, it is not given here.

In the case of “D2CC: domain of ATIP3BD, amino-acid positions 817-874 of SEQ ID NO: 1, 58 amino-acids polypeptide, expressed as GFP fusion (SGNAAVIKYEEKPPKPAFQNGSSGSFYLKPLVSRAHVHLMKTPPKGPSRKNLFTALNA; also: expressed as GFP fusion; listed as Homo sapiens)”, the intracellular localization entry with microtubule cytoskeleton is recorded as “remains diffuse in the cytosol”. In addition, the “factor of reduction of proliferation as compared to clone expressing GFP-ATIP3” value with MCF7 breast cancer cells stood at 2.
